From patent US20210284633A1, “3-(2-THIENYL)-5-(TRIFLUOROMETHYL)-1,2,4-OXADIAZOLE DERIVATIVES AS AGROCHEMICAL FUNGICIDES” (SYNGENTA CROP PROTECTION AG, priority 2018, published 2021)

How the values were obtained:
[1] = test system: Puccinia recondita f. Sp. tritici; assay: Puccinia recondita f. sp. tritici / wheat / leaf disc preventative (brown rust); type: in vivo; details: foliar, 200 ppm in the applied formulation, wheat leaf segments cv. Kanzler, inoculated 1 day after application, assessed 7 to 9 days after application, compared to untreated, read-out: disease control
Protocol: Leaf disks or leaf segments of various plant species are cut from plants grown in a greenhouse. The cut leaf disks or segments are placed in multiwell plates (24-well format) onto water agar. The leaf disks are sprayed with a test solution before (preventative) or after (curative) inoculation. Compounds to be tested are prepared as DMSO solutions (max. 10 mg/mL) which are diluted to the appropriate concentration with 0.025% Tween20 just before spraying. The inoculated leaf disks or segments are incubated under defined conditions (temperature, relative humidity, light, etc.) according to the respective test system. A single evaluation of disease level is carried out 3 to 14 days after inoculation, depending on the pathosystem. Percent disease control relative to the untreated check leaf disks or segments is then calculated. Example 1: Fungicidal Activity Against Puccinia recondita f. Sp. tritici/Wheat/Leaf Disc Preventative (Brown Rust) Wheat leaf segments cv. Kanzler were placed on agar in multiwell plates (24-well format) and sprayed with the formulated test compound diluted in water. The leaf disks were inoculated with a spore suspension of the fungus 1 day after application. The inoculated leaf segments were incubated at 19° C. and 75% relative humidity (rh) under a light regime of 12 hours light/12 hours darkness in a climate cabinet and the activity of a compound was assessed as percent disease control compared to untreated when an appropriate level of disease damage appears in untreated check leaf segments (7 to 9 days after application). The following compounds at 200 ppm in the applied formulation give at least 80% disease control in this test when compared to untreated control leaf disks under the same conditions, which show extensive disease development.

[2] = test system: Puccinia recondita f. Sp. tritici; assay: Puccinia recondita f. sp. tritici / wheat / leaf disc curative (brown rust); type: in vivo; details: foliar, 200 ppm in the applied formulation, wheat leaf segments cv. Kanzler, applied 1 day after inoculation, assessed 6 to 8 days after application, compared to untreated, read-out: disease control
Protocol: Leaf disks or leaf segments of various plant species are cut from plants grown in a greenhouse. The cut leaf disks or segments are placed in multiwell plates (24-well format) onto water agar. The leaf disks are sprayed with a test solution before (preventative) or after (curative) inoculation. Compounds to be tested are prepared as DMSO solutions (max. 10 mg/mL) which are diluted to the appropriate concentration with 0.025% Tween20 just before spraying. The inoculated leaf disks or segments are incubated under defined conditions (temperature, relative humidity, light, etc.) according to the respective test system. A single evaluation of disease level is carried out 3 to 14 days after inoculation, depending on the pathosystem. Percent disease control relative to the untreated check leaf disks or segments is then calculated. Example 2: Fungicidal Activity Against Puccinia recondita f. sp. tritici/Wheat/Leaf Disc Curative (Brown Rust) Wheat leaf segments cv. Kanzler are placed on agar in multiwell plates (24-well format). The leaf segments are then inoculated with a spore suspension of the fungus. Plates were stored in darkness at 19° C. and 75% relative humidity. The formulated test compound diluted in water was applied 1 day after inoculation. The leaf segments were incubated at 19° C. and 75% relative humidity under a light regime of 12 hours light/12 hours darkness in a climate cabinet and the activity of a compound was assessed as percent disease control compared to untreated when an appropriate level of disease damage appears in untreated check leaf segments (6 to 8 days after application). The following compounds at 200 ppm in the applied formulation give at least 80% disease control in this test when compared to untreated control leaf disks under the same conditions, which show extensive disease development.

[3] = test system: Phakopsora pachurhizi; assay: Phakopsora pachurhizi / soybean / leaf disc preventative (Asian soybean rust); type: in vivo; details: Glycine max, foliar, 200 ppm in the applied formulation, soybean leaf disks, inoculated one day after application, assessed 12 to 14 days after application, compared to untreated, read-out: disease control
Protocol: Leaf disks or leaf segments of various plant species are cut from plants grown in a greenhouse. The cut leaf disks or segments are placed in multiwell plates (24-well format) onto water agar. The leaf disks are sprayed with a test solution before (preventative) or after (curative) inoculation. Compounds to be tested are prepared as DMSO solutions (max. 10 mg/mL) which are diluted to the appropriate concentration with 0.025% Tween20 just before spraying. The inoculated leaf disks or segments are incubated under defined conditions (temperature, relative humidity, light, etc.) according to the respective test system. A single evaluation of disease level is carried out 3 to 14 days after inoculation, depending on the pathosystem. Percent disease control relative to the untreated check leaf disks or segments is then calculated.
Example 3: Fungicidal Activity Against Phakopsora pachurhizi/Soybean/Leaf Disc Preventative (Asian Soybean Rust)
Soybean leaf disks are placed on water agar in multiwell plates (24-well format) and sprayed with the formulated test compound diluted in water. One day after application leaf discs are inoculated by spraying a spore suspension on the lower leaf surface. After an incubation period in a climate cabinet of 24-36 hours in darkness at 20° C. and 75% rh leaf disc are kept at 20° C. with 12 hours light/day and 75% rh. The activity of a compound is assessed as percent disease control compared to untreated when an appropriate level of disease damage appears in untreated check leaf disks (12 to 14 days after application).
The following compounds at 200 ppm in the applied formulation give at least 80% disease control in this test when compared to untreated control leaf disks under the same conditions, which show extensive disease development.

[4] = test system: Glomerella lagenarium; assay: Glomerella lagenarium liquid culture / cucumber / preventative (anthracnose); type: cell-based; details: Colletotrichum orbiculare; 20 ppm in the applied formulation; liquid culture in PDB, 24° C.; measured 3 to 4 days after application; compared to untreated; read-out: disease control (inhibition of growth, photometric)
Protocol: Mycelia fragments or conidia suspensions of a fungus prepared either freshly from liquid cultures of the fungus or from cryogenic storage, are directly mixed into nutrient broth. DMSO solutions of the test compound (max. 10 mg/mL) are diluted with 0.025% Tween20 by a factor of 50 and 10 μL of this solution is pipetted into a microtiter plate (96-well format). The nutrient broth containing the fungal spores/mycelia fragments is then added to give an end concentration of the tested compound. The test plates are incubated in the dark at 24° C. and 96% relative humidity. The inhibition of fungal growth is determined photometrically after 2 to 7 days, depending on the pathosystem, and percent antifungal activity relative to the untreated check is calculated. Example 4: Fungicidal activity against Glomerella lagenarium liquid culture/cucumber/Preventative (Anthracnose) Conidia of the fungus from cryogenic storage are directly mixed into nutrient broth (PDB—potato dextrose broth). After placing a (DMSO) solution of test compound into a microtiter plate (96-well format), the nutrient broth containing the fungal spores is added. The test plates are incubated at 24° C. and the inhibition of growth is measured photometrically 3 to 4 days after application. The following compounds at 20 ppm in the applied formulation give at least 80% disease control in this test when compared to untreated control under the same conditions, which show extensive disease development.

What does the source list for O=C(c1ncccn1)c1ccc(-c2noc(C(F)(F)F)n2)s1 [Compound 1.7, pyrimidin-2-yl-[5-[5-(trifluoromethyl)-1,2,4-oxadiazol-3-yl]-2-thienyl]methanone]?
pest or weed control at 200 ppm [1]: ≥ 80%; pest or weed control at 200 ppm [2]: ≥ 80%; pest or weed control at 200 ppm [3]: ≥ 80%; inhibition at 20 ppm [4]: ≥ 80%; melting point: 110 to 116 °C

Which results are given for O=C(c1cnccn1)c1ccc(-c2noc(C(F)(F)F)n2)s1 [Compound 1.5, pyrazin-2-yl-[5-[5-(trifluoromethyl)-1,2,4-oxadiazol-3-yl]-2-thienyl]methanone]?
pest or weed control at 200 ppm [1]: ≥ 80%; pest or weed control at 200 ppm [2]: ≥ 80%; pest or weed control at 200 ppm [3]: ≥ 80%; inhibition at 20 ppm [4]: ≥ 80%; melting point: 95 to 105 °C

Which results are given for Cc1cnc(C(O)c2ccc(-c3noc(C(F)(F)F)n3)s2)cn1 (stereo not drawn) [Compound 1.3, (5-methylpyrazin-2-yl)-[5-[5-(trifluoromethyl)-1,2,4-oxadiazol-3-yl]-2-thienyl]methanol]?
pest or weed control at 200 ppm [1]: ≥ 80%; pest or weed control at 200 ppm [2]: ≥ 80%; pest or weed control at 200 ppm [3]: ≥ 80%; inhibition at 20 ppm [4]: ≥ 80%; melting point: 95 to 100 °C

Which pest or weed control at 200 ppm [1] does the source give for CCC(O)(c1ccc(C)cn1)c1ccc(-c2noc(C(F)(F)F)n2)s1 (stereo not drawn) [Compound 1.10, 1-(5-methyl-2-pyridyl)-1-[5-[5-(trifluoromethyl)-1,2,4-oxadiazol-3-yl]-2-thienyl]propan-1-ol] here?
The pest or weed control at 200 ppm was at least 80%.

What about the pest or weed control at 200 ppm [2] of the same compound?
The pest or weed control at 200 ppm was at least 80%.

And the pest or weed control at 200 ppm [3]?
Its pest or weed control at 200 ppm is at least 80%.

And the inhibition at 20 ppm [4]?
The inhibition at 20 ppm was at least 80%.

For Cc1cnc(C(=O)c2ccc(-c3noc(C(F)(F)F)n3)s2)cn1 [Compound 1.2, (5-methylpyrazin-2-yl)-[5-[5-(trifluoromethyl)-1,2,4-oxadiazol-3-yl]-2-thienyl]methanone], which pest or weed control at 200 ppm [1] is on record?
The pest or weed control at 200 ppm was at least 80%.

What about the pest or weed control at 200 ppm [2] of the same compound?
Its pest or weed control at 200 ppm is at least 80%.

And the pest or weed control at 200 ppm [3]?
The pest or weed control at 200 ppm was at least 80%.

What about the inhibition at 20 ppm [4] of the same compound?
Its inhibition at 20 ppm is at least 80%.

And the melting point?
The melting point was 105 to 110 °C.

For Cc1ccc(C(O)c2ccc(-c3noc(C(F)(F)F)n3)s2)nc1 (stereo not drawn) [Compound 1.13, (5-methyl-2-pyridyl)-[5-[5-(trifluoromethyl)-1,2,4-oxadiazol-3-yl]-2-thienyl]methanol], which pest or weed control at 200 ppm [1] is on record?
The pest or weed control at 200 ppm was at least 80%.

And the pest or weed control at 200 ppm [2]?
The pest or weed control at 200 ppm was at least 80%.

What about the pest or weed control at 200 ppm [3] of the same compound?
Its pest or weed control at 200 ppm is at least 80%.

And the inhibition at 20 ppm [4]?
Its inhibition at 20 ppm is at least 80%.

With O=C(c1cnc(Cl)cn1)c1ccc(-c2noc(C(F)(F)F)n2)s1 [Compound 1.9, (5-chloropyrazin-2-yl)-[5-[5-(trifluoromethyl)-1,2,4-oxadiazol-3-yl]-2-thienyl]methanone] as the compound, how does the pest or weed control at 200 ppm [1] read?
The pest or weed control at 200 ppm was at least 80%.

What about the pest or weed control at 200 ppm [2] of the same compound?
Its pest or weed control at 200 ppm is at least 80%.

What about the inhibition at 20 ppm [4] of the same compound?
Its inhibition at 20 ppm is at least 80%.

And the melting point?
Its melting point is 80 to 85 °C.

Which pest or weed control at 200 ppm [1] does the source give for Cc1ccc(Cc2ccc(-c3noc(C(F)(F)F)n3)s2)nc1 [Compound 1.11, 3-[5-[(5-methyl-2-pyridyl)methyl]-2-thienyl]-5-(trifluoromethyl)-1,2,4-oxadiazole] here?
Its pest or weed control at 200 ppm is at least 80%.

What about the pest or weed control at 200 ppm [2] of the same compound?
Its pest or weed control at 200 ppm is at least 80%.

And the pest or weed control at 200 ppm [3]?
Its pest or weed control at 200 ppm is at least 80%.

What about the inhibition at 20 ppm [4] of the same compound?
Its inhibition at 20 ppm is at least 80%.

And the melting point?
The melting point was 40 to 45 °C.

For Cc1ccc(C(=O)c2ccc(-c3noc(C(F)(F)F)n3)s2)nc1C [Compound 1.8, (5,6-dimethyl-2-pyridyl)-[5-[5-(trifluoromethyl)-1,2,4-oxadiazol-3-yl]-2-thienyl]methanone], which pest or weed control at 200 ppm [1] is on record?
The pest or weed control at 200 ppm was at least 80%.

What about the pest or weed control at 200 ppm [2] of the same compound?
Its pest or weed control at 200 ppm is at least 80%.

And the pest or weed control at 200 ppm [3]?
The pest or weed control at 200 ppm was at least 80%.

What about the melting point of the same compound?
The melting point was 98 to 112 °C.

Which pest or weed control at 200 ppm [1] does the source give for FC(F)(F)c1nc(-c2ccc(Cc3cnccn3)s2)no1 [Compound 1.4, 3-[5-(pyrazin-2-ylmethyl)-2-thienyl]-5-(trifluoromethyl)-1,2,4-oxadiazole] here?
The pest or weed control at 200 ppm was at least 80%.

What about the pest or weed control at 200 ppm [2] of the same compound?
The pest or weed control at 200 ppm was at least 80%.

What about the pest or weed control at 200 ppm [3] of the same compound?
Its pest or weed control at 200 ppm is at least 80%.

What about the inhibition at 20 ppm [4] of the same compound?
The inhibition at 20 ppm was at least 80%.

Which pest or weed control at 200 ppm [1] does the source give for Cc1ccc(C(=O)c2ccc(-c3noc(C(F)(F)F)n3)s2)nc1 [Compound 1.12, (5-methyl-2-pyridyl)-[5-[5-(trifluoromethyl)-1,2,4-oxadiazol-3-yl]-2-thienyl]methanone] here?
The pest or weed control at 200 ppm was at least 80%.

What about the pest or weed control at 200 ppm [2] of the same compound?
Its pest or weed control at 200 ppm is at least 80%.

What about the pest or weed control at 200 ppm [3] of the same compound?
Its pest or weed control at 200 ppm is at least 80%.

And the inhibition at 20 ppm [4]?
Its inhibition at 20 ppm is at least 80%.

And the melting point?
The melting point was 111 to 114 °C.

For OC(c1cnccn1)c1ccc(-c2noc(C(F)(F)F)n2)s1 (stereo not drawn) [Compound 1.6, pyrazin-2-yl-[5-[5-(trifluoromethyl)-1,2,4-oxadiazol-3-yl]-2-thienyl]methanol], which pest or weed control at 200 ppm [1] is on record?
The pest or weed control at 200 ppm was at least 80%.

And the pest or weed control at 200 ppm [2]?
Its pest or weed control at 200 ppm is at least 80%.

What about the inhibition at 20 ppm [4] of the same compound?
Its inhibition at 20 ppm is at least 80%.

Which pest or weed control at 200 ppm [1] does the source give for Cc1cnc(Cc2ccc(-c3noc(C(F)(F)F)n3)s2)cn1 [Compound 1.1, 3-[5-[(5-methylpyrazin-2-yl)methyl]-2-thienyl]-5-(trifluoromethyl)-1,2,4-oxadiazole] here?
Its pest or weed control at 200 ppm is at least 80%.

And the pest or weed control at 200 ppm [2]?
Its pest or weed control at 200 ppm is at least 80%.

What about the pest or weed control at 200 ppm [3] of the same compound?
The pest or weed control at 200 ppm was at least 80%.

What about the inhibition at 20 ppm [4] of the same compound?
The inhibition at 20 ppm was at least 80%.
